US10279082B2, “Implant with an bioactive coating and method for providing the same” (Biomet Deutschland GmbH, priority 2015, dated 2019)

How the values were obtained:
[1] = Wiping test for adherence of the coating (glass substrate, polyester cloth); type: physicochemical; settings: fosfomycin-Ca about 430 μg/cm^2, rifampicin about 60 μg/cm^2, wiped with polyester cloth
Source text: A substrate, here a glass substrate, was coated at first with a fosfomycin-Ca monohydrate suspension. Subsequently, a part of the glass substrate coated with fosfomycin-Ca was partially coated with rifampicin.
The completely coated substrate was then wiped using a polyester cloth.

[2] = test system: intracellular staphylococci; settings: local administration of a pharmaceutical composition comprising rifampin; cited from earlier work

Structure (SMILES) | adherence of coating after wiping [1] | elimination of intracellular staphylococci [2]
C[C@@H]1O[C@@H]1P(=O)([O-])[O-].O.[Ca+2] [fosfomycin-Ca, fosfomycin-calcium-monohydrate] | largely removed | –
CO[C@H]1/C=C/O[C@@]2(C)Oc3c(C)c(O)c4c(O)c(c(/C=N/N5CCN(C)CC5)c(O)c4c3C2=O)NC(=O)/C(C)=C\C=C\[C@H](C)[C@H](O)[C@@H](C)[C@@H](O)[C@@H](C)[C@H](OC(C)=O)[C@@H]1C [rifampin] | – | reduced within three days
